Where a name gives a salt, the structure may show the parent alone. Read-outs that look alike come from different tables or passages of the source.

What all share (assay type): biochemical
Experiment [1] has as its target T1, recombinant human VAP-1 (Homo sapiens, UniProt Q16853).
T1 construct: purchased R&D systems
T1 sequence (Q16853 1-763): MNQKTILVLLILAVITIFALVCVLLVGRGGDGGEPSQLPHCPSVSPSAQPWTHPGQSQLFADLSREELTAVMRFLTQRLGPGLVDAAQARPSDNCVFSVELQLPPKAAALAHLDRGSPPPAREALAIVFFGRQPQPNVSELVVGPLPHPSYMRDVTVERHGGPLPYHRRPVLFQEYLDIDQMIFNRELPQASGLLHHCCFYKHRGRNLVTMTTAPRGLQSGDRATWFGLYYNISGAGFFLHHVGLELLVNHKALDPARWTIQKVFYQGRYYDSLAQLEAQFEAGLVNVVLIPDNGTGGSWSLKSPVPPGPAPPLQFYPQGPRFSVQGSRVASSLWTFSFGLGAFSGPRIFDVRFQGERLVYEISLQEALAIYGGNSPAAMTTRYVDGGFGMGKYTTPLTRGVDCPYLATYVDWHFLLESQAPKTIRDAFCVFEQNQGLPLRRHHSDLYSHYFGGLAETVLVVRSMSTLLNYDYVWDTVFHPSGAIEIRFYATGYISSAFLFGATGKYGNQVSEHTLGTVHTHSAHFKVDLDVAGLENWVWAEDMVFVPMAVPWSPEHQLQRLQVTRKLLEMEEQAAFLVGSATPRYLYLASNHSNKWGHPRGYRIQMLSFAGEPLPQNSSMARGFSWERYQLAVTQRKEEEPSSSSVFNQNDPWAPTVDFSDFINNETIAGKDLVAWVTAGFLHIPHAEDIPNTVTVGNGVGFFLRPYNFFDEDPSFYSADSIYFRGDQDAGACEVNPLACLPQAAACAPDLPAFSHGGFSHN
Put plainly: Activity on recombinant human VAP-1, Amplex Red HRP-coupled hydrogen peroxide assay, benzylamine substrate. Particulars: recombinant human VAP-1, benzylamine substrate, read-out: Inhibitory Activity (IC50, nM) human VAP-1. The essentials: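 Enzyme in 50 mM sodium phosphate (pH 7.4) is exposed to test compound for 30 min at 37 °C. Benzylamine (1 mM) with HRP and Amplex Red then starts the reaction, and the fluorescence rate, relative to a DMSO-only control, gives IC50.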

Experiment [2] has as its target T2, recombinant human MAO-A (monoamine oxidase-A) (Homo sapiens, UniProt P21397).
T2 construct: purchased Sigma-Aldrich
T2 sequence (P21397 1-527): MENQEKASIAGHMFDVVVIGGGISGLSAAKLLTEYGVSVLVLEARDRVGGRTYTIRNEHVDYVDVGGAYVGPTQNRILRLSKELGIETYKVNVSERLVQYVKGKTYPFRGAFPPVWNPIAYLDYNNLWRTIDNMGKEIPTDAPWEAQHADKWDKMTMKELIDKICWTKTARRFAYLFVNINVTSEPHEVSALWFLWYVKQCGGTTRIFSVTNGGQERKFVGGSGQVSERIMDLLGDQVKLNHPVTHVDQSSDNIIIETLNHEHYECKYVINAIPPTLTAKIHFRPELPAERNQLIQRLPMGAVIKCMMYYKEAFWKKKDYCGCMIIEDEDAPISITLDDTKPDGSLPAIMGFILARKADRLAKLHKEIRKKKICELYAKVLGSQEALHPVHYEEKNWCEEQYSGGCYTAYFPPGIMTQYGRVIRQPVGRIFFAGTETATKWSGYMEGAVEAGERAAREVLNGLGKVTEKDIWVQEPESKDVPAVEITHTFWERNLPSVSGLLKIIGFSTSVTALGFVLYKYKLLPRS
Briefly: Activity on recombinant human MAO-A, Amplex Red method, 0.5 mM tyramine substrate. The settings on record: read-out: Inhibitory Activity (IC50, nM) MAO-A. Here is the method: (§1) The compounds according to the present technology were evaluated in terms of activity on recombinant human VAP-1 (R&D systems) by measuring the level of hydrogen peroxide in horseradish peroxidase (HRP)-coupled reaction using Amplex Red Hydrogen Peroxide Assay Kit (Molecular Probes, Invitrogen, USA). The experiment was carried out at room temperature using benzylamine as a substrate. In the HRP-coupled reaction, hydrogen peroxide oxidation of 10-acetyl-3,7-dihydroxyphenoxazine (Amplex Red reagent) produces resorufin, which is a highly fluorescent compound. Briefly, the test compound was dissolved in dimethyl sulfoxide (DMSO) at a concentration of 20 mM. The dose-response assessment was made by 1:3 serial dilution in DMSO, thereby creating an 8 point curve. The concentration of the upper part was controlled according to the efficacy of the compounds, followed by dilution with a reaction buffer solution to obtain a final DMSO concentration less than 1%. To each well of a 96 black well plate, human VAP-1 purified in 50 mM sodium phosphate buffer solution (pH7.4) was added. The test compounds dissolved in DMSO were incubated with the human VAP-1 enzymes at 37° C. for 30 minutes. After 30-minute incubation, each well is added with a reaction mixture containing 200 uM Amplex Red reagent prepared from 50 mM sodium phosphate buffer solution (pH 7.4), 1 mM benzylamine, and 1 U/mL HRP. Fluorescence intensity was measured at several time points during 1-2 hours using a microplate reader (Flexstation3, Molecular Devices) under the wavelength condition exciting at 544 nm and reading the emission at 590 nm. The inhibitory effect of the compounds was measured as a decrease (%) in the signal rate as compared to the control group without any inhibitor (only diluted DMSO). Data was fixed to a logistic model with four variables and IC50 value was calculated using GraphPad Prism program.
(§2) In addition, the compounds according to the present technology were evaluated in terms of activity on a recombinant human MAO-A (monoamine oxidase-A, Sigma-Aldrich) and a recombinant human MAO-B (monoamine oxidase-B, Sigma-Aldrich) by using as substrates, 0.5 mM tyramine and 1 mM benzylamine, respectively, with a method similar to the activity evaluation method for recombinant human VAP-1. The compounds according to the present technology were also evaluated in terms of activity on a recombinant human DAO (diamine oxidase, R&D systems) by using as a substrate 1 mM putrescine with a method similar to the activity evaluation method for recombinant human VAP-1.

Experiment [3] addresses T3, recombinant human MAO-B (monoamine oxidase-B) (Homo sapiens, UniProt P27338).
T3 construct: purchased Sigma-Aldrich
T3 sequence (P27338 1-520): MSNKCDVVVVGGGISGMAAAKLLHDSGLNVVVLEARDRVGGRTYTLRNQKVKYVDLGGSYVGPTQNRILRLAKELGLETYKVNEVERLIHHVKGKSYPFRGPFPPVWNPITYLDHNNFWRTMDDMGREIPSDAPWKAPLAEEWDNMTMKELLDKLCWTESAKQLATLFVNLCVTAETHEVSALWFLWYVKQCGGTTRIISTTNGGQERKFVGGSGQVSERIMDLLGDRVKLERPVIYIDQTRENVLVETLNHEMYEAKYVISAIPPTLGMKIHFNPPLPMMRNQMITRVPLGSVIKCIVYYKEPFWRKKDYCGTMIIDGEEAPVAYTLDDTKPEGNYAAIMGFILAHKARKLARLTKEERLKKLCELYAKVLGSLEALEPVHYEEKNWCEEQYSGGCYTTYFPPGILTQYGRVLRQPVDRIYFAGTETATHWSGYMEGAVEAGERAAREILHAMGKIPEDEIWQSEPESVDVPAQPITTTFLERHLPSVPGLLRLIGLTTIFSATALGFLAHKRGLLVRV
Put plainly: Activity on recombinant human MAO-B, Amplex Red method, 1 mM benzylamine substrate. The settings on record: read-out: Inhibitory Activity (IC50, nM) MAO-B. On the procedure:
as §1, §2

Experiment [4] has as its target T4, recombinant human DAO (diamine oxidase) (Homo sapiens, UniProt P19801).
T4 construct: purchased R&D systems
T4 sequence (P19801 20-751): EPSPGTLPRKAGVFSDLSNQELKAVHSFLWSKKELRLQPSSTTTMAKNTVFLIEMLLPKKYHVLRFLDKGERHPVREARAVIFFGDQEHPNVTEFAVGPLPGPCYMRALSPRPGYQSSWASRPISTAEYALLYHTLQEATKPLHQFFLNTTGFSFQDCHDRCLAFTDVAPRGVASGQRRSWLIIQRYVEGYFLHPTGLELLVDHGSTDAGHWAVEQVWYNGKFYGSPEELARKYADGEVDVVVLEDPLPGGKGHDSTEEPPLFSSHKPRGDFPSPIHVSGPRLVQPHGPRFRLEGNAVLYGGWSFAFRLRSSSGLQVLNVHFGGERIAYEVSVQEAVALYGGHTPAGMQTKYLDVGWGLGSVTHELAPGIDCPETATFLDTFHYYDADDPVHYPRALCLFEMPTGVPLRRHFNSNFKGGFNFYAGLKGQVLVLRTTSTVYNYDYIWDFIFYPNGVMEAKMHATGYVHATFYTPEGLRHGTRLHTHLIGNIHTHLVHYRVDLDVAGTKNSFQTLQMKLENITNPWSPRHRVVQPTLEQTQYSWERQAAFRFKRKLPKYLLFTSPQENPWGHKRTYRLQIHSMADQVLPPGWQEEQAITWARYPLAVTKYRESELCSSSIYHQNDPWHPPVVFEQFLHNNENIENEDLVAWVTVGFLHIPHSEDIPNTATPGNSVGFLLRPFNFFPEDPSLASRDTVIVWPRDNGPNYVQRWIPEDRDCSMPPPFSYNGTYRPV
Briefly: Activity on recombinant human DAO, Amplex Red method, 1 mM putrescine substrate. The settings on record: recombinant human DAO, read-out: Inhibitory Activity (IC50, nM) DAO. The procedure, abridged: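 Inhibition of recombinant human DAO (diamine oxidase, R&D systems) was assessed with the Amplex Red Hydrogen Peroxide Assay Kit. Hydrogen peroxide produced from 1 mM putrescine was detected through an HRP-coupled reaction that converts Amplex Red into fluorescent resorufin, read at 544 nm excitation and 590 nm emission. IC50 values came from four-parameter logistic fits in GraphPad Prism.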

The mark [5] stands for this setting: 1 mM putrescine, * = between 10 and 100 nM, ** = between 300 and 1000 nM.

A word on the IC50: it is the concentration that inhibits the measured activity by half. As to `NC/C(=C\F)Cn1ncn(-c2cccc(-c3cc4ccccc4s3)c2)c1=O` [Example 101, 2-[(2E)-2-(aminomethyl)-3-fluoroprop-2-en-1-yl]-4-[3-(1-benzothiophen-2-yl)phenyl]-2,4-dihydro-3H-1,2,4-triazol-3-one hydrochloride], the IC50 in experiment [1] (30 min preincubation at 37° C.) is 0.9 nM; in experiment [2] (0.5 mM tyramine), 58000 nM; in experiment [3] (1 mM benzylamine) it was 300 nM; in experiment [4] (setting [5]), 34 nM.
As to `NC/C(=C\F)Cn1ncn(-c2cccc(-c3cccc(N4CCNCC4)c3)n2)c1=O` [Example 185, 2-[(2E)-2-(aminomethyl)-3-fluoroprop-2-en-1-yl]-4-{6-[3-(piperazin-1-yl)phenyl]pyridin-2-yl}-2,4-dihydro-3H-1,2,4-triazol-3-one hydrochloride], the IC50 was 2.4 nM in experiment [1], above 100000 nM in experiment [2] (0.5 mM tyramine substrate), above 10000 nM in experiment [3] (1 mM benzylamine substrate) and 2.5 nM in experiment [4] (1 mM putrescine substrate).
`CN1C(=O)CCc2cc(-c3cccc(-n4cnn(C/C(=C/F)CN)c4=O)n3)ccc21` [Example 198, 6-[6-[1-[(E)-2-(aminomethyl)-3-fluoro-allyl]-5-oxo-1,2,4-triazol-4-yl]-2-pyridyl]-1-methyl-3,4-dihydroquinolin-2-one hydrochloride]: the concentration for half-maximal inhibition (IC50) was 2.9 nM in experiment [1], above 100000 nM in experiment [2] (0.5 mM tyramine substrate), above 10000 nM in experiment [3] (1 mM benzylamine substrate) and 130 nM in experiment [4] (1 mM putrescine substrate).
As to `CS(=O)(=O)c1ccc(-c2cccc(-n3cnn(C/C(=C/F)CN)c3=O)c2)cc1` [Example 54, 2-[(2E)-2-(aminomethyl)-3-fluoroprop-2-en-1-yl]-4-[4′-(methylsulfonyl)biphenyl-3-yl]-2,4-dihydro-3H-1,2,4-triazol-3-one hydrochloride], the IC50 is 0.4 nM in experiment [1] (30 min preincubation at 37° C.), above 100000 nM in experiment [2] (0.5 mM tyramine), above 10000 nM in experiment [3] (1 mM benzylamine) and below 100 nM in experiment [4] (setting [5]).
For `NC/C(=C\F)Cn1ncn(-c2cc(C#Cc3ccccn3)ccn2)c1=O` [Example 244, 2-[(2E)-2-(aminomethyl)-3-fluoroprop-2-en-1-yl]-4-[4-(pyridin-2-ylethynyl)pyridin-2-yl]-2,4-dihydro-3H-1,2,4-triazol-3-one hydrochloride], the 50% inhibitory concentration (IC50) is 0.8 nM in experiment [1], above 100000 nM in experiment [2] (0.5 mM tyramine substrate), 100 nM in experiment [3] (1 mM benzylamine substrate) and 12 nM in experiment [4] (1 mM putrescine substrate).
Turning to `NC/C(=C\F)Cn1ncn(-c2cnc(-c3ccc(-c4nc[nH]n4)cc3)cn2)c1=O` [Example 218, 2-[(2E)-2-(aminomethyl)-3-fluoroprop-2-en-1-yl]-4-{5-[4-(1H-1,2,4-triazol-3-yl)phenyl]pyrazin-2-yl}-2,4-dihydro-3H-1,2,4-triazol-3-one], the IC50 in experiment [1] is 1.9 nM; in experiment [2] (0.5 mM tyramine substrate) it was above 100000 nM; in experiment [3] (1 mM benzylamine substrate), 49 nM; in experiment [4] (1 mM putrescine substrate), below 100 nM.
Turning to `CC(=O)Nc1nc2cc(-c3cnc(-n4cnn(C/C(=C/F)CN)c4=O)cn3)ccc2s1` [Example 225, N-[5-(5-{1-[(2E)-2-(aminomethyl)-3-fluoroprop-2-en-1-yl]-5-oxo-1,5-dihydro-4H-1,2,4-triazol-4-yl}pyrazin-2-yl)-1,3-benzothiazol-2-yl]acetamide], the 50% inhibitory concentration (IC50) in experiment [1] was 1 nM; in experiment [2] (0.5 mM tyramine substrate), above 100000 nM; in experiment [3] (1 mM benzylamine substrate), 53 nM; in experiment [4] (1 mM putrescine substrate), below 100 nM.

The values above are taken from patent US11492335B2, “Aryl or heteroaryl triazolone derivatives or salts thereof, or pharmaceutical compositions comprising the same” (YUHAN CORPORATION, priority 2018, dated 2022).
